Assay [1] has as its target Glycogen synthase kinase-3 beta (Homo sapiens, UniProt P49841). Put plainly: TR-FRET Assay. In a few lines:
(§1)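 Kinase activity, measured after a 30-minute compound preincubation, was stopped with EDTA and quantified by TR-FRET using a Tb-labelled pSer641 antibody paired with streptavidin-d2.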

The target of assay [2] is Glycogen synthase kinase-3 alpha (Homo sapiens, UniProt P49840). Put plainly: TR-FRET Assay. An outline of the steps: as §1
A general note: In TR-FRET formats the signal depends on donor and acceptor labels being close together.

One may read the IC50 as the midpoint of a concentration-inhibition curve. Lower therefore signals higher potency.

Several values for one entry are separate records, joined by “and”; a condition that tells them apart may be missing. Equal entries are not always repeated.

Sequence of Glycogen synthase kinase-3 beta (P49841 whole entry): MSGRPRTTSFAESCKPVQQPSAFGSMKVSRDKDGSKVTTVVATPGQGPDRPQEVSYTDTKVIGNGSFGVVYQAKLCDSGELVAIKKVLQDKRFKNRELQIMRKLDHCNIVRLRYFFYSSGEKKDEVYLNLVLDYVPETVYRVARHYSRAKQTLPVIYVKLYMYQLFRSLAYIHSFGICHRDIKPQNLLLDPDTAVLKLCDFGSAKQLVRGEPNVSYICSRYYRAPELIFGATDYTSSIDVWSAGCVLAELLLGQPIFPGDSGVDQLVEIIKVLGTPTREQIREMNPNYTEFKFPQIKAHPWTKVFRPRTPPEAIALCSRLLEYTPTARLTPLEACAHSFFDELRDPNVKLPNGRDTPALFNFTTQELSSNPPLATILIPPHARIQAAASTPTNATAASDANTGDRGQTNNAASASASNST
Sequence of Glycogen synthase kinase-3 alpha (P49840 whole entry): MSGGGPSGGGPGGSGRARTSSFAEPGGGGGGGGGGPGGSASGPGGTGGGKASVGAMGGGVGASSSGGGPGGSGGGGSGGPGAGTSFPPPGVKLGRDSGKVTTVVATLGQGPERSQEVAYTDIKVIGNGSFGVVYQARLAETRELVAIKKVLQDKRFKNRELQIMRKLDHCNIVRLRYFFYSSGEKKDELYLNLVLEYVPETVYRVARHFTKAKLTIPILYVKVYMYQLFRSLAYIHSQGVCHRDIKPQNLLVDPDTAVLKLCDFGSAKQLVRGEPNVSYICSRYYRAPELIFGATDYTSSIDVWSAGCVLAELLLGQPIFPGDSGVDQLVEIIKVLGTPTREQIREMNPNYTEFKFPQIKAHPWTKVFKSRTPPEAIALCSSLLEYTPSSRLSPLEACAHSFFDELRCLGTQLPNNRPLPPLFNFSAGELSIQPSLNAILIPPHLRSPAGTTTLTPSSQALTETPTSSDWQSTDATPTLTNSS

On to `CCC1(c2cccc(-c3cncn3C)c2)C2=C(CC(C)(C)CC2=O)NC2N=NC(C)=C21` (centres undefined) [US20250313563, Compound 884001], for which the IC50 in assay [1] and in assay [2] was less than 100 nM each time.

Regarding `CC1(C)CC(=O)C2=C(C1)NC1=C(CN=N1)C21CCN(S(=O)(=O)c2cccc(Cl)c2F)CC1` [US20250313563, Compound 948118], the IC50 was < 100 nM and 100 to 1000 nM in assay [1]; less than 100 nM in assay [2].

Consider `CCn1nccc1S(=O)(=O)N1CCC2(CC1)C1=C(N=NC1)NC1=C2C(=O)CC(C)(C)C1` [US20250313563, Compound 945664], for which the IC50 in assay [1] and in assay [2] was less than 100 nM throughout.

As to `CCCc1cc(-c2cccc(C3(CC)C4=CN=NC4NC4=C3C(=O)CC(C)(C)C4)c2)ccn1` (centres undefined) [US20250313563, Compound 945467], the IC50 in assay [1] was 100 to 1000 nM; in assay [2] it was less than 100 nM.

As to `CCC1(c2cccc(OC)c2)C2=C(N=NC2)NC2=C1C(=O)NC(C)(C)C2` (centres undefined) [US20250313563, Compound 948296], the IC50 in assay [1] lay in the range of 1000 to 5000 nM; in assay [2], 100 to 1000 nM.

Turning to `CC1(C)CC(=O)C2=C(C1)NC1=C(CN=N1)C21CCC(S(C)(=O)=O)CC1` (centres undefined) [US20250313563, Compound 913356], the IC50 in assay [1] and in assay [2] was less than 100 nM in each case.

For `CC[C@@]1(c2cccc(-c3cc(C)nnc3C)c2)C2=C(CC(C)(C)NC2=O)NC2N=NC(C)=C21` (some centres undefined) [US20250313563, Compound 949333], the IC50 in assay [1] is 100 to 1000 nM; in assay [2], less than 100 nM.

On to `CCC1(c2cccc(-c3ccncc3C)c2)C2=CN=NC2NC2=C1C(=O)CC(C)(C)C2` (centres undefined) [US20250313563, Compound 913351], for which the IC50 in assay [1] and in assay [2] was less than 100 nM throughout.

For the compound `CC[C@H]1C[C@]2(CCO1)C1=C(N=NC1)NC1=C2C(=O)CC(C)(C)C1` [US20250313563, Compound 907329], the IC50 in assay [1] lay in the range of 1000 to 5000 nM; in assay [2] it was 100 to 1000 nM.

Regarding `CC1(C)CC(=O)C2=C(C1)NC1=C(CN=N1)C21COC2(CN(C(=O)C3CCC3)C2)C1` (centres undefined) [US20250313563, Compound 947288], the half-maximal inhibitory concentration (IC50) was < 100 nM and 100 to 1000 nM in assay [1]; < 100 nM and 100 to 1000 nM in assay [2].

`CC[C@]1(c2cccc(-c3ccnc4c3CCC4)c2)C2=CN=NC2NC2=C1C(=O)NC(C)(C)C2` (some centres undefined) [US20250313563, Compound 948313]: the IC50 in assay [1] was < 100 nM and 1000 to 5000 nM; in assay [2] it was < 100 nM and 100 to 1000 nM.

For the compound `CC[C@]1(c2cccc(C(F)(F)F)c2)C2=CN=NC2NC2=C1C(=O)N(C)CC2` (some centres undefined) [US20250313563, Compound 917282], the IC50 in assay [1] is 100 to 1000 nM; in assay [2], less than 100 nM.

For `CC[C@]1(c2cccc(-c3ccncc3O)c2)C2=CN=NC2NC2=C1C(=O)CC(C)(C)C2` (some centres undefined) [US20250313563, Compound 945728], the IC50 in assay [1] is more than 5000 nM; in assay [2], 1000 to 5000 nM.

Take `CCC1(c2cccc(-c3cnn(C)c3)c2)C2=CN=NC2NC2=C1C(=O)CC(C)(C)C2` (centres undefined) [US20250313563, Compound 816871]: the IC50 was 100 to 1000 nM in assay [1] and less than 100 nM in assay [2].

Take `CC1CC(=O)C2=C(C1)NC1=C(CN=N1)C21CCOCC1` (centres undefined) [US20250313563, Compound 884112]: the IC50 in assay [1] and in assay [2] was 100 to 1000 nM throughout.

Turning to `CC[C@]1(c2cccc(Cl)c2)C2=C(CC(C)(C)CC2=O)NC2N=NC(C)=C21` (some centres undefined) [US20250313563, Compound 790612], the IC50 in assay [1] and in assay [2] was less than 100 nM throughout.

In the case of `CCC1(c2cccc(S(=O)(=O)C3CCOC3)c2)C2=CN=NC2NC2=C1C(=O)CC(C)(C)C2` (centres undefined) [US20250313563, Compound 944018], the concentration for half-maximal inhibition (IC50) in assay [1] and in assay [2] was less than 100 nM in each case.

Regarding `CC[C@]1(c2cccc(C(F)(F)F)c2)C2=C(N=NC2)NC2=C1C(=O)CC2` [US20250313563, Compound 951565], the IC50 in assay [1] was 100 to 1000 nM; in assay [2], less than 100 nM.

Take `CC1(C)CC(=O)C2=C(C1)NC1N=NC=C1C21CN(c2ccc(C(F)(F)F)cc2)C1` (centres undefined) [US20250313563, Compound 945478]: the IC50 in assay [1] and in assay [2] was 100 to 1000 nM each time.

Take `C[C@H]1CC[C@@]2(C1)C1=C(N=NC1)NC1=C2C(=O)CC(C)(C)C1` [US20250313563, Compound 883840]: the IC50 in assay [1] and in assay [2] was 100 to 1000 nM throughout.

In the case of `CCC1(c2ccc(C)cc2)C2=C(CC(C)(C)CC2=O)NC2N=NC(C(F)(F)F)=C21` (centres undefined) [US20250313563, Compound 883866], the IC50 in assay [1] and in assay [2] was less than 100 nM each time.

For `CCC1(c2cccc(Br)c2)C2=CN=NC2NC2=C1C(=O)CC(C(F)(F)F)C2` (centres undefined) [US20250313563, Compound 819565], the IC50 in assay [1] and in assay [2] was 100 to 1000 nM throughout.

In the case of `Cc1ccc(S(=O)(=O)N2CCC3(CC2)C2=C(N=NC2)NC2=C3C(=O)CC(C)(C)C2)s1` [US20250313563, Compound 945672], the IC50 in assay [1] is < 100 nM and 100 to 1000 nM; in assay [2] it was < 100 nM and 100 to 1000 nM.

Turning to `O=C1C2=C(NC3N=NC=C3C23CCOCC3)[C@H]2CC[C@@H]1C2` (some centres undefined) [US20250313563, Compound 912080], the IC50 in assay [1] and in assay [2] was 100 to 1000 nM throughout.

With `CCC1(c2cccc(S(=O)(=O)C(C)C)c2)C2=CN=NC2NC2=C1C(=O)NC(C)(C)C2` (centres undefined) [US20250313563, Compound 945464], the IC50 in assay [1] and in assay [2] was less than 100 nM each time.

For `CCN(c1cccc([C@]2(CC)C3=CN=NC3NC3=C2C(=O)CC(C)(C)C3)c1)c1ncccn1` (some centres undefined) [US20250313563, Compound 947334], the IC50 in assay [1] is 1000 to 5000 nM; in assay [2] it was 100 to 1000 nM.

Turning to `CC[C@@]1(c2cccc(-c3ccncc3CO)c2)C2=CN=NC2NC2=C1C(=O)CC(C)(C)C2` (some centres undefined) [US20250313563, Compound 945479], the figures for the IC50 in assay [1] and in assay [2] were 1000 to 5000 nM and 100 to 1000 nM, respectively.

In the case of `CC1(C)CC(=O)C2=C(C1)NC1=C(CN=N1)C21CC(C)(C)C1` [US20250313563, Compound 883864], the IC50 in assay [1] is 100 to 1000 nM; in assay [2], less than 100 nM.

With `CC[C@@]1(c2ccccc2)C2=CN=NC2NC2=C1C(=O)CC(C)(C)[C@@H]2F` (some centres undefined) [US20250313563, Compound 957199], the IC50 in assay [1] and in assay [2] was more than 5000 nM each time.

Consider `CCC1(c2cccc(Oc3cncnc3)c2)C2=CN=NC2NC2=C1C(=O)CC(C)(C)C2` (centres undefined) [US20250313563, Compound 917212], for which the IC50 is 100 to 1000 nM in assay [1] and less than 100 nM in assay [2].

Turning to `CC[C@@]1(c2cccc(-c3ccncc3)c2)C2=C(CC(C)(C)CC2=O)NC2N=NC(C(F)(F)F)=C21` (some centres undefined) [US20250313563, Compound 917292], the IC50 in assay [1] and in assay [2] was 100 to 1000 nM throughout.

On to `CC[C@@]1(c2cccc(-c3ccnc(C(F)F)c3)c2)C2=CN=NC2NC2=C1C(=O)NC(C)(C)C2` (some centres undefined) [US20250313563, Compound 950561], for which the values for the IC50 in assay [1] and in assay [2] were 100 to 1000 nM and less than 100 nM, respectively.

For `CC1(C)CC(=O)C2=C(C1)NC1=C(CN=N1)[C@]21CCC[C@H](C#N)C1` [US20250313563, Compound 946078], the IC50 in assay [1] was more than 5000 nM; in assay [2] it was 1000 to 5000 nM.

With `CC[C@]1(c2cccc(-c3ccncc3F)c2)C2=C(CC(C)(C)NC2=O)NC2N=NC(C(F)(F)F)=C21` (some centres undefined) [US20250313563, Compound 948770], the IC50 in assay [1] and in assay [2] was 100 to 1000 nM in each case.

On to `CC[C@]1(c2cc(-c3cnn(C)c3)ccc2F)C2=CN=NC2NC2=C1C(=O)CC(C)(C)C2` (some centres undefined) [US20250313563, Compound 909220], for which the IC50 is 100 to 1000 nM in assay [1] and less than 100 nM in assay [2].

As to `CC1(C)CC(=O)C2=C(C1)NC1=C(CN=N1)C21CN(S(=O)(=O)c2ccccc2)C1` [US20250313563, Compound 901474], the 50% inhibitory concentration (IC50) in assay [1] and in assay [2] was less than 100 nM in each case.

For the compound `CC1(C)CC(=O)C2=C(C1)NC1=C(CN=N1)C21COC2(CN(C(=O)C(F)(F)F)C2)C1` (centres undefined) [US20250313563, Compound 947280], the IC50 in assay [1] and in assay [2] was less than 100 nM each time.

Consider `CC[C@H]1C[C@@]2(CO1)C1=C(N=NC1)NC1=C2C(=O)CC(C)(C)C1` [US20250313563, Compound 913216], for which the IC50 in assay [1] and in assay [2] was 100 to 1000 nM in each case.

Consider `CO[C@H]1CC[C@]2(CC1)C1=C(N=NC1)NC1=C2C(=O)CC(C)(C)C1` [US20250313563, Compound 884120], for which the IC50 in assay [1] and in assay [2] was 100 to 1000 nM each time.

Consider `CC[C@]1(c2cccc(-c3cnn(CCOC)c3)c2)C2=C(CC(C)(C)CC2=O)NC2N=NC(C)=C21` (some centres undefined) [US20250313563, Compound 913042], for which the IC50 in assay [1] and in assay [2] was more than 5000 nM in each case.

Consider `CC1(C)CC(=O)C2=C(C1)NC1=C(CN=N1)C21CCCCC1` [US20250313563, Compound 826650], for which the IC50 in assay [1] and in assay [2] was less than 100 nM throughout.

For the compound `CC1(C)CC(=O)C2=C(C1)NC1N=NC=C1C21CCCN(S(=O)(=O)Cc2ccccc2)CC1` (centres undefined) [US20250313563, Compound 932632], the values for the IC50 in assay [1] and in assay [2] were 100 to 1000 nM and less than 100 nM, respectively.

On to `CC[C@]1(c2cccc(-c3ccncc3)c2)C2=C(CC(C)(C)CC2=O)NC2N=NC(C)=C21` (some centres undefined) [US20250313563, Compound 913054], for which the IC50 in assay [1] was in the range of 1000 to 5000 nM; in assay [2], 100 to 1000 nM.

As to `CC[C@@]1(c2cccc(-c3cnn(C4CC4(F)F)c3)c2)C2=CN=NC2NC2=C1C(=O)NC(C)(C)C2` (some centres undefined) [US20250313563, Compound 950060], the values for the IC50 in assay [1] and in assay [2] were 100 to 1000 nM and less than 100 nM, respectively.

On to `COc1cccc(S(=O)(=O)N2CCC3(CC2)C2=C(N=NC2)NC2=C3C(=O)CC(C)(C)C2)c1F` [US20250313563, Compound 945656], for which the concentration for half-maximal inhibition (IC50) in assay [1] is < 100 nM and 100 to 1000 nM; in assay [2] it was less than 100 nM.

Turning to `CC1(C)CC(=O)C2=C(C1)NC1=C(CN=N1)C21CCN(S(=O)(=O)c2ccc(F)cn2)CC1` [US20250313563, Compound 947251], the IC50 in assay [1] and in assay [2] was 100 to 1000 nM each time.

As to `CCC1(c2cccc(N3CCOCC3)c2)C2=C(CC(C)(C)NC2=O)NC2N=NC(C)=C21` (centres undefined) [US20250313563, Compound 947564], the IC50 in assay [1] and in assay [2] was 100 to 1000 nM in each case.

(Values after BindingDB's records for patent US20250313563 (The Broad Institute, 2025).)
